In PMC5513444, “The synthesis and evaluation of triazolopyrimidines as anti-tubercular agents” (Bioorganic & Medicinal Chemistry, 2017):
Converted amounts (≈) assume the structure as drawn.

Legend:
[1] = tested on: HepG2 cells; experiment: Cytotoxicity against HepG2 cell line (CellTiter-Glo); type: cell-based; settings: for IC50: Homo sapiens, 48 h, HepG2, 2 days incubation, read-out: IC50 (concentration required to reduce the viability of HepG2 cells by 50%); for Selectivity index (SI) = IC50/MIC90: HepG2 IC50 / M. tuberculosis MIC90
[2] = tested on: M. tuberculosis H37Rv; experiment: MIC90 against M. tuberculosis in liquid medium; type: cell-based, Mycobacterium tuberculosis; settings: Mycobacterium tuberculosis, H37RV, 120 h; liquid medium 7H9-Tw-OADC, aerobic, 5 days; average ± SD of two independent experiments; read-out: MIC (MIC90, minimum concentration required to inhibit growth of M. tuberculosis by 90%)

Row | Structure (SMILES) | IC50 [1] | MIC90 [2] | melting point | Selectivity index (SI) = IC50/MIC90 [1]
1 | CCNc1cc(-c2ccccc2)nc2ncnn12 [Compound 30, N-Ethyl-5-phenyl-[1,2,4]triazolo[1,5-a]pyrimidin-7-amine] | 37 µM | > 20 µM | 170 to 172 °C | 
2 | CCCNc1cc(-c2ccccc2)nc2ncnn12 [Compound 31, 5-Phenyl-N-propyl-[1,2,4]triazolo[1,5-a]pyrimidin-7-amine] | 94 µM | > 20 µM | 139 to 140 °C | 
3 | CCCCNc1cc(-c2ccccc2)nc2ncnn12 [Compound 32, N-Butyl-5-phenyl-[1,2,4]triazolo[1,5-a]pyrimidin-7-amine] | 98 µM | > 20 µM | 125 to 126 °C | 
4 | COCCNc1cc(-c2ccccc2)nc2ncnn12 [Compound 33, N-(2-Methoxyethyl)-5-phenyl-[1,2,4]triazolo[1,5-a]pyrimidin-7-amine] | > 100 µM | > 20 µM | 116 to 118 °C | 
5 | c1ccc(-c2cc(NC3CC3)n3ncnc3n2)cc1 [Compound 34, N-Cyclopropyl-5-phenyl-[1,2,4]triazolo[1,5-a]pyrimidin-7-amine] | > 100 µM | > 20 µM | 193 to 195 °C | 
6 | c1ccc(-c2cc(NC3CCC3)n3ncnc3n2)cc1 [Compound 35, N-Cyclobutyl-5-phenyl-[1,2,4]triazolo[1,5-a]pyrimidin-7-amine] | 57 µM | > 20 µM | 193 to 194 °C | 
7 | c1ccc(-c2cc(NCCC3CCCCC3)n3ncnc3n2)cc1 [Compound 36, N-(2-Cyclohexylethyl)-5-phenyl-[1,2,4]triazolo[1,5-a]pyrimidin-7-amine] | > 100 µM | 17 ± 2.1 µM (≈ 5.46 µg/mL) | 168 to 169 °C | >6
8 | COc1ccc(Nc2cc(-c3ccccc3)nc3ncnn23)cc1 [Compound 37, N-(4-Methoxyphenyl)-5-phenyl-[1,2,4]triazolo[1,5-a]pyrimidin-7-amine] | 49 µM | > 20 µM | 200 to 202 °C | 
9 | COc1ccc(CNc2cc(-c3ccccc3)nc3ncnn23)cc1 [Compound 38, N-(4-Methoxybenzyl)-5-phenyl-[1,2,4]triazolo[1,5-a]pyrimidin-7-amine] | 43 µM | > 20 µM | 162 to 163 °C | 
10 | c1ccc(CCNc2cc(-c3ccccc3)nc3ncnn23)cc1 [Compound 39, N-Phenethyl-5-phenyl-[1,2,4]triazolo[1,5-a]pyrimidin-7-amine] | 27 µM | 7.7 ± 0.7 µM (≈ 2.43 µg/mL) | 164 to 165 °C | 3.5
11 | c1ccc(CCCNc2cc(-c3ccccc3)nc3ncnn23)cc1 [Compound 40, 5-Phenyl-N-(3-phenylpropyl)-[1,2,4]triazolo[1,5-a]pyrimidin-7-amine] | 8.7 µM | > 20 µM | 143 to 145 °C | 
12 | c1ccc(-c2cc(NCCc3ccccn3)n3ncnc3n2)cc1 [Compound 41, 5-Phenyl-N-(2-(pyridin-2-yl)ethyl)-[1,2,4]triazolo[1,5-a]pyrimidin-7-amine] | > 100 µM | > 20 µM | 111 to 114 °C | 
13 | c1ccc(-c2cc(NCCc3cccnc3)n3ncnc3n2)cc1 [Compound 42, 5-Phenyl-N-(2-(pyridin-3-yl)ethyl)-[1,2,4]triazolo[1,5-a]pyrimidin-7-amine] | > 100 µM | > 20 µM | 169 to 171 °C | 
14 | c1ccc(-c2cc(NCCc3ccncc3)n3ncnc3n2)cc1 [Compound 43, 5-Phenyl-N-(2-(pyridin-4-yl)ethyl)-[1,2,4]triazolo[1,5-a]pyrimidin-7-amine] | > 100 µM | > 20 µM | 231 to 233 °C | 
15 | CCc1ccc(CCNc2cc(-c3ccccc3)nc3ncnn23)cc1 [Compound 45, N-(4-Ethylphenethyl)-5-phenyl-[1,2,4]triazolo[1,5-a]pyrimidin-7-amine] | > 100 µM | 0.74 ± 0.1 µM (≈ 0.254 µg/mL) | 152 to 154 °C | >138
16 | Fc1ccc(CCNc2cc(-c3ccccc3)nc3ncnn23)cc1 [Compound 46, N-(4-Fluorophenethyl)-5-phenyl-[1,2,4]triazolo[1,5-a]pyrimidin-7-amine] | 50 µM | > 20 µM | 169 to 170 °C | 
17 | FC(F)(F)c1ccc(CCNc2cc(-c3ccccc3)nc3ncnn23)cc1 [Compound 47, 5-Phenyl-N-(4-(trifluoromethyl)phenethyl)-[1,2,4]triazolo[1,5-a]pyrimidin-7-amine] | > 100 µM | 2.7 ± 0.7 µM (≈ 1.04 µg/mL) | 183 to 184 °C | >38
18 | COc1ccc(CC(=O)Nc2cc(-c3ccccc3)nc3ncnn23)cc1OC [Compound 50, 2-(3,4-Dimethoxyphenyl)-N-(5-phenyl-[1,2,4]triazolo[1,5-a]pyrimidin-7-yl)acetamide] | > 100 µM | 10 ± 1.1 µM (≈ 3.89 µg/mL) | 202 to 204 °C | >10
19 | c1ccc(CCNc2cc(-c3ccccn3)nc3ncnn23)cc1 [Compound 51, N-Phenethyl-5-(pyridin-2-yl)-[1,2,4]triazolo[1,5-a]pyrimidin-7-amine] | > 100 µM | 2.4 ± 1.3 µM (≈ 0.759 µg/mL) | 214 to 215 °C | >46
20 | c1ccc(CCNc2cc(-c3ccccn3)nc3ncnn23)nc1 [Compound 52, 5-(Pyridin-2-yl)-N-(2-(pyridin-2-yl)ethyl)-[1,2,4]triazolo[1,5-a]pyrimidin-7-amine] | > 100 µM | > 20 µM | 156 to 157 °C | 
21 | c1ccc(-c2cc(NCCc3cccnc3)n3ncnc3n2)nc1 [Compound 53, 5-(Pyridin-2-yl)-N-(2-(pyridin-3-yl)ethyl)-[1,2,4]triazolo[1,5-a]pyrimidin-7-amine] | > 100 µM | > 20 µM | 212 to 213 °C | 
22 | c1ccc(-c2cc(NCCc3ccncc3)n3ncnc3n2)nc1 [Compound 54, 5-(Pyridin-2-yl)-N-(2-(pyridin-4-yl)ethyl)-[1,2,4]triazolo[1,5-a]pyrimidin-7-amine] | > 100 µM | > 20 µM | 201 to 202 °C | 
23 | Cc1ccc(CCNc2cc(-c3ccccn3)nc3ncnn23)cc1 [Compound 55, N-(4-Methylphenethyl)-5-(pyridin-2-yl)-[1,2,4]triazolo[1,5-a]pyrimidin-7-amine] | > 100 µM | 0.52 ± 0.1 µM (≈ 0.172 µg/mL) | 194 to 196 °C | >196
24 | CCc1ccc(CCNc2cc(-c3ccccn3)nc3ncnn23)cc1 [Compound 56, N-(4-Ethylphenethyl)-5-(pyridin-2-yl)-[1,2,4]triazolo[1,5-a]pyrimidin-7-amine] | 44 µM | 0.2 ± 0.02 µM (≈ 0.0689 µg/mL) | 154 to 155 °C | 220
25 | Fc1ccc(CCNc2cc(-c3ccccn3)nc3ncnn23)cc1 [Compound 57, N-(4-Fluorophenethyl)-5-(pyridin-2-yl)-[1,2,4]triazolo[1,5-a]pyrimidin-7-amine] | 81 µM | 4.8 ± 1.3 µM (≈ 1.6 µg/mL) | 190 to 192 °C | 17
